Measured values taken from patent US12679812B2, “18F-labeled triazole containing PSMA inhibitors” (Cornell University, priority 2016, dated 2026).
Values joined by “and” are separate entries in the source; they are usually repeats but may differ in a detail not shown here. Equal values may be shown once. Read-outs that look alike come from different tables or passages of the source. Marks after values point to notes of the source that are not given here.

Experiments:
[1] = biological target: T1, PSMA on LNCaP cells (Homo sapiens, UniProt Q04609); assay: Competitive binding assay against 99mTc-MIP-1427 for binding to PSMA on LNCaP cells; conditions: non-radioactive fluorine-containing ligands, 1 nM 99mTc-MIP-1427, 1 hour
T1 construct: host or cells: LNCaP
Protocol: Cell Culture. The human prostate cancer cell line, LNCaP, was obtained from the American Type Culture Collection. Cell culture supplies were from Invitrogen unless otherwise noted. LNCaP cells were maintained in RPMI-1640 medium supplemented with 10% fetal bovine serum (Hyclone), 4 mM L-glutamine, 1 mM sodium pyruvate, 10 mM N-2-hydroxyethylpiperazine-N-2-ethanesulfonic acid (HEPES), 2.5 mg/mL D-glucose, and 50 μg/mL gentamicin in a humidified incubator at 37° C./5% C02. Cells were removed from flasks for passage or for transfer to 12-well assay plates by incubating them with 0.25% trypsin/ethylenediaminetetraacetic acid (EDTA).
In vitro determination of IC50. IC50 values of the non-radioactive fluorine-containing ligands were determined by screening in a multi-concentration competitive binding assay against ^99mTc-((7S,12S,16S)-1-(1-(carboxymethyl)-1H-imidazol-2-yl)-2-((1-(carboxymethyl)-1H-imidazol-2-yl)methyl)-9,14-dioxo-2,8,13,15-tetraazaoctadecane-7,12,16,18-tetracarboxylic acid technetium tricarbonyl complex) (^99mTc-MIP-1427) for binding to PSMA on LNCaP cells, according to methods previously described. See Hillier S M, Maresca K P, Lu G, Merkin R D, Marquis J C, Zimmerman C N, Eckelman W C, Joyal J L, Babich J W. 99mTc-Labeled Small-Molecule Inhibitors of Prostate-Specific Membrane Antigen for Molecular Imaging of Prostate Cancer. J. Nucl. Med. 2013, 54, 1369-1376, incorporated herein by reference. The LNCaP cells were plated 48 hours prior to the experiment to achieve a density of approximately 5×10^5 cells/well (in triplicate) in RPMI-1640 medium supplemented with 0.25% bovine serum albumin prior to performing the assay. LNCaP cells were incubated for 1 hour with 1 nM ^99mTc-MIP-1427 in serum free RPMI-1640 medium in the presence of 1-10,000 nM test compounds. Radioactive incubation media was then removed by pipette and the cells were washed twice using 1 mL ice-cold HEPES buffer. Cells were harvested from the plates and transferred to tubes for radioactive counting using a Packard Cobra II Gamma Counter. IC50 values were determined by non-linear regression using GraphPad Prism software.

[2] = test system: LNCaP tumor; conditions: literature value, cited from earlier work
[3] = test system: LNCaP xenograft tumor; assay: microPET/CT imaging of LNCaP xenograft tumor-bearing mice; type: in vivo; conditions: for Max. LNCaP Tumor Uptake: image derived calculation of tumor uptake (microPET/CT), at time of maximum uptake; for Time p.i. of max. LNCaP tumor uptake: microPET/CT imaging at 1, 2, 4, 6 h; for Route of clearance / excretion: from microPET/CT images
Protocol: (§1) Inoculation of mice with xenografts. All animal studies were approved by the Institutional Animal Care and Use Committee of Weill Cornell Medicine and were undertaken in accordance with the guidelines set forth by the USPHS Policy on Humane Care and Use of Laboratory Animals. Animals were housed under standard conditions in approved facilities with 12 h light/dark cycles. Food and water was provided ad libitum throughout the course of the studies. Male inbred athymic nu/nu mice were purchased from The Jackson Laboratory. For inoculation in mice, LNCaP cells were suspended at 4×10^7 cells/mL in a 1:1 mixture of PBS:Matrigel (BD Biosciences). Each mouse was injected in the left flank with 0.25 mL of the cell suspension. The mice were imaged when the tumors reached approximately 200-400 mm^3, while biodistributions were conducted when tumors were in the range 100-400 mm^3.
Imaging. […] Specific activity was greater than […]. The mice were imaged by pPET/CT (Inveon™; Siemens Medical Solutions, Inc.) at 1 h, 2 h, 4 h, and 6 h post-injection ([^18F]fluorinated compounds) or 1 h and 3 h post-injection ([^68Ga]Ga-PSMA-HBED-CC). Total acquisition time was thirty minutes, and a CT scan was obtained either immediately before or immediately after the acquisition for both anatomical co-registration and attenuation correction. The data were reconstructed using the commercial Inveon™ software supplied by the vendor. Tumor uptake was estimated by drawing a region of interest (ROI).

[4] = test system: LNCaP xenograft tumor; assay: Ex vivo biodistribution in LNCaP xenograft tumor-bearing mice; conditions: for Tumor uptake / Max. LNCaP Tumor Uptake: n=5; for Tumor uptake relative to [68Ga]Ga-PSMA-HBED-CC: at the time of maximum tumor uptake; for Time p.i. of max. LNCaP tumor uptake: biodistribution at 1, 2, 4 h; for Max. LNCaP Tumor Uptake: biodistribution
Protocol: as §1
Biodistribution. LNCaP xenograft tumor-bearing mice (n=5 per time point) were injected via the tail vein with a bolus injection of 370 kBq (10 μCi) of either [^18F]RPS-040 or [^18F]RPS-041. The specific activity of the compounds was […], respectively. The mice were euthanized by asphyxiation under isofluorane at 1 h, 2 h and 4 h post injection. An additional set of mice (n=5) was co-administered [^18F]RPS-040 (370 kBq; 10 μCi) and 2-PMPA (approx. 250 μg; 10 mg/kg) and sacrificed at 1 h post injection to determine the uptake specificity. A full biodistribution study was conducted on all mice, and tissues were excised, weighed and counted in an automated γ-counter. Tissue time-activity values were expressed as percentage injected dose per gram of tissue (% ID/g). Statistical comparisons were performed using the standard Student's t-test for a 95% confidence interval.

[5] = biological target: T2, PSMA (Homo sapiens, UniProt Q04609); conditions: for PSMA, competitive binding assay using LNCaP cells, literature value, cited from earlier work
T2 construct: host or cells: LNCaP

[6] = test system: LNCaP tumor; conditions: reported study, cited from earlier work; for Tumor uptake (Max. LNCaP Tumor Uptake): 3 h post injection
[7] = 1 h post injection, co-administered with 2-PMPA (blocked)
[8] = listed as [^68Ga]Ga-PSMA-HBED-CC

T1 sequence (Q04609 whole entry): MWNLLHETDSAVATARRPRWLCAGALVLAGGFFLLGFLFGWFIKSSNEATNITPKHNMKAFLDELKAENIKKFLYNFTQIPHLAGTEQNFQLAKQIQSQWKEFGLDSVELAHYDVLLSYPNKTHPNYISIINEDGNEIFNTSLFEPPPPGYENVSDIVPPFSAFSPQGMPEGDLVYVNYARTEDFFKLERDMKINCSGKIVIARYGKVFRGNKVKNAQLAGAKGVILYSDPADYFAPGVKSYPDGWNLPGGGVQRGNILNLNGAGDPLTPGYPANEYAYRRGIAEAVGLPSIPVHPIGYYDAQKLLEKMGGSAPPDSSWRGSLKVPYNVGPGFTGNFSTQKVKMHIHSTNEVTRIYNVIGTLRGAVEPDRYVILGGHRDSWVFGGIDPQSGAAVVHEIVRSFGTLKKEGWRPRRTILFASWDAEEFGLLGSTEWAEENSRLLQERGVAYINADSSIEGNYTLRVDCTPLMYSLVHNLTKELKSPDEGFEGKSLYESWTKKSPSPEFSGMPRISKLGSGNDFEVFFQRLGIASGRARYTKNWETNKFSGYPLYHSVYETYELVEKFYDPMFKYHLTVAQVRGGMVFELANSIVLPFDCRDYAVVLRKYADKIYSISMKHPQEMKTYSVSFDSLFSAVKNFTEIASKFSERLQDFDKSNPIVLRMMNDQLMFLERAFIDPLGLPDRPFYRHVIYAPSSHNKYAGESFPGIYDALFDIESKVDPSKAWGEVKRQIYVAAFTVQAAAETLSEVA
T2 sequence (Q04609 whole entry): as above

O=C(O)CC[C@H](NC(=O)N[C@@H](CCCCNC(=O)Nc1ccc(I)cc1)C(=O)O)C(=O)O [MIP-1095]
IC50 [1]: 0.3 nM | Max. LNCaP Tumor Uptake ([2]; 4 h p.i.): 34.3 ± 12.7^a % ID/g | Time p.i. of max. LNCaP tumor uptake [2]: 4 h

O=C(O)CC[C@H](NC(=O)N[C@@H](CCCCNC(=O)Nc1ccc(OCc2cn(CCF)nn2)cc1)C(=O)O)C(=O)O [RPS-038, (((S)-1-Carboxy-5-(3-(4-((1-(2-fluoroethyl)-1H-1,2,3-triazol-4-yl)methoxy)phenyl)ureido)pentyl)carbamoyl)-L-glutamic acid]
IC50 [1]: 21.3 nM | Max. LNCaP Tumor Uptake [3]: 8.87 ± 0.64^c % ID/g | Time p.i. of max. LNCaP tumor uptake [3]: 2 h

O=C(O)CC[C@H](NC(=O)N[C@@H](CCCCNC(=O)Nc1ccccc1OCc1cn(CCF)nn1)C(=O)O)C(=O)O [RPS-039, (((S)-1-Carboxy-5-(3-(2-((1-(2-fluoroethyl)-1H-1,2,3-triazol-4-yl)methoxy)phenyl)ureido)pentyl)carbamoyl)-L-glutamic acid]
IC50 [1]: 14 nM | Route of clearance / excretion [3]: clearance via the hepatobiliary pathway in addition to renal clearance | Max. LNCaP Tumor Uptake [3]: 5.87±0.27 % ID/g and 5.89 ± 0.27^c % ID/g | Time p.i. of max. LNCaP tumor uptake [3]: 2 h

O=C(O)CC[C@H](NC(=O)N[C@@H](CCCCNC(=O)Nc1cccc(-c2cn(CCF)nn2)c1)C(=O)O)C(=O)O [RPS-040, (((S)-1-Carboxy-5-(3-(3-(1-(2-fluoroethyl)-1H-1,2,3-triazol-4-yl)phenyl)ureido)pentyl)carbamoyl)-L-glutamic acid]
IC50 [1]: 7 nM | Max. LNCaP Tumor Uptake [3]: 14.30 % ID/g | Tumor-to-blood ratio ([4]; 1 h post injection): 28.8±8.06 | Tumor-to-blood ratio relative to [68Ga]Ga-PSMA-HBED-CC ([4]; 1 h post injection): three-fold greater | Tumor-to-kidney ratio (contrast) relative to [68Ga]Ga-PSMA-HBED-CC ([4]; 1 h post injection): ten | Uptake in the kidneys [4, 7]: 5.95±1.65 % ID/g | Uptake in the spleen [4, 7]: 0.32±0.05 % ID/g | Tumor uptake [4, 7]: 1.75±0.15 % ID/g | Uptake in the kidneys ([4]; 1 h post injection, unblocked): 74.24±10.71 % ID/g | Uptake in the spleen ([4]; 1 h post injection, unblocked): 4.97±1.55 % ID/g | Tumor uptake ([4]; 1 h post injection, unblocked): 12.69±1.56 % ID/g | Uptake in the kidneys ([4]; 2 h post injection): 60.94±8.06 % ID/g | Uptake in the liver ([4]; 2 h post injection): 4.72±0.93 % ID/g | Uptake in the spleen ([4]; 2 h post injection): 3.23±1.26 % ID/g | Tumor-to-blood ratio ([4]; 4 h post injection): 92.93±75.67 | Tumor uptake relative to [68Ga]Ga-PSMA-HBED-CC [4]: more than two-fold greater | Time p.i. of max. LNCaP tumor uptake [4]: 2 h | Max. LNCaP Tumor Uptake ([4]; 2 h post injection): 14.30 ± 2.49^ % ID/g | Max. LNCaP Tumor Uptake ([4]; 2 h post injection, listed as [^18F]RPS-040): 14.30±2.49 % ID/g

O=C(O)CC[C@H](NC(=O)N[C@@H](CCCCNC(=O)Nc1ccc(-c2cn(CCF)nn2)cc1)C(=O)O)C(=O)O [RPS-041, (((S)-1-Carboxy-5-(3-(4-(1-(2-fluoroethyl)-1H-1,2,3-triazol-4-yl)phenyl)ureido)pentyl)carbamoyl)-L-glutamic acid]
IC50 [1]: 3.2 nM | Max. LNCaP Tumor Uptake [3]: 12.51 % ID/g | Tumor-to-blood ratio ([4]; 1 h post injection): 20.78±7.87 | Tumor-to-blood ratio relative to [68Ga]Ga-PSMA-HBED-CC ([4]; 1 h post injection): more than two-fold | Tumor-to-kidney ratio (contrast) relative to [68Ga]Ga-PSMA-HBED-CC ([4]; 1 h post injection): twelve-fold greater | Contrast (tumor-to-background) relative to [18F]RPS-040 ([4]; 2 h post injection): two-fold greater | Uptake in the kidneys ([4]; 2 h post injection): 23.93±5.45 % ID/g | Uptake in the liver ([4]; 2 h post injection): 2.51±0.21 % ID/g | Uptake in the spleen ([4]; 2 h post injection): 1.13±0.47 % ID/g | Tumor-to-blood ratio ([4]; 4 h post injection): 118.4±69.4 | Tumor uptake relative to [68Ga]Ga-PSMA-HBED-CC [4]: nearly two-fold greater | Time p.i. of max. LNCaP tumor uptake [4]: 2 h | Max. LNCaP Tumor Uptake ([4]; 2 h post injection): 10.86 ± 1.03^ % ID/g | Max. LNCaP Tumor Uptake ([4]; 2 h post injection, listed as [^18F]RPS-041): 10.86±1.03 % ID/g

O=C(O)CC[C@H](NC(=O)N[C@@H](CCCCNC(=O)Nc1ccccc1-c1cn(CCF)nn1)C(=O)O)C(=O)O [RPS-042, (((S)-1-Carboxy-5-(3-(2-(1-(2-fluoroethyl)-1H-1,2,3-triazol-4-yl)phenyl)ureido)pentyl)carbamoyl)-L-glutamic acid]
IC50 [1]: 10.2 nM | Route of clearance / excretion [3]: clearance via the hepatobiliary pathway in addition to renal clearance | Max. LNCaP Tumor Uptake [3]: 10.06 ± 1.33^c % ID/g | Time p.i. of max. LNCaP tumor uptake [3]: 2 h

O=C(O)CC[C@H](NC(=O)N[C@@H](CCCCNC(=O)Nc1cccc(OCc2cn(CCF)nn2)c1)C(=O)O)C(=O)O [RPS-043, (((S)-1-Carboxy-5-(3-(3-((1-(2-fluoroethyl)-1H-1,2,3-triazol-4-yl)methoxy)phenyl)ureido)pentyl)carbamoyl)-L-glutamic acid]
IC50 [1]: 36.5 nM | Max. LNCaP Tumor Uptake [3]: 9.04 ± 1.88^c % ID/g | Time p.i. of max. LNCaP tumor uptake [3]: 2 h

O=C([O-])CN(CCN(CC(=O)[O-])Cc1cc(CCC(=O)NCCCCCC(=O)NCCCC[C@H](NC(=O)N[C@@H](CCC(=O)O)C(=O)O)C(=O)O)ccc1[O-])Cc1cc(CCC(=O)O)ccc1[O-].[68Ga+3].[OH3+] [^68Ga-PSMA-HBED-CC]
Uptake in the liver or intestine ([3]; microPET/CT, 1 h post injection): No uptake | IC50 [5]: 24.3 ± 2 nM | IC50 [5, 8]: ~24 nM | Activity in the kidney ([6]; 1 h): 314.44±90.61 % ID/g | Activity in the spleen ([6]; 1 h): 31.73±14.09 % ID/g | Tumor uptake ([6]; 1 h post injection): 5.81±1.67 % ID/g | Activity in the kidney ([6]; 3 h): 207.97±58.38 % ID/g | Activity in the spleen ([6]; 3 h): 13.85±3.53 % ID/g | Tumor uptake (Max. LNCaP Tumor Uptake) [6]: 6.27 ± 1.44 % ID/g | Tumor uptake (Max. LNCaP Tumor Uptake) [6, 8]: 6.27±1.44 % ID/g | Time p.i. of max. LNCaP tumor uptake ([6]; 1 h and 3 h): 3 h
